Experimental data taken from paper PMC7254866 (ACS chemical biology, 2019).

Columns and labels:
[1] = test system: FpL2-6, H11G11, Rg3, and Rh2 GUS enzymes; assay: Catalytic efficiency across the four regorafenib-glucuronide processing enzymes; assay type: biochemical; conditions: 4-MUG versus regorafenib-glucuronide
Rh2GUS = Rh2GUS (Roseburia hominis, UniProt A0A395V8I7); assay: Inhibition of Rh2GUS; assay type: biochemical
FpL2-6 = FpL2-6 (Faecalibacterium prausnitzii, UniProt D4K3H3); assay: Inhibition of FpL2-6 GUS; assay type: biochemical
(UniProt D5GU71) = assay: Inhibition of H11G11 GUS; assay type: biochemical, uncultured taxon
Sequence of (UniProt D5GU71) (D5GU71 1-754): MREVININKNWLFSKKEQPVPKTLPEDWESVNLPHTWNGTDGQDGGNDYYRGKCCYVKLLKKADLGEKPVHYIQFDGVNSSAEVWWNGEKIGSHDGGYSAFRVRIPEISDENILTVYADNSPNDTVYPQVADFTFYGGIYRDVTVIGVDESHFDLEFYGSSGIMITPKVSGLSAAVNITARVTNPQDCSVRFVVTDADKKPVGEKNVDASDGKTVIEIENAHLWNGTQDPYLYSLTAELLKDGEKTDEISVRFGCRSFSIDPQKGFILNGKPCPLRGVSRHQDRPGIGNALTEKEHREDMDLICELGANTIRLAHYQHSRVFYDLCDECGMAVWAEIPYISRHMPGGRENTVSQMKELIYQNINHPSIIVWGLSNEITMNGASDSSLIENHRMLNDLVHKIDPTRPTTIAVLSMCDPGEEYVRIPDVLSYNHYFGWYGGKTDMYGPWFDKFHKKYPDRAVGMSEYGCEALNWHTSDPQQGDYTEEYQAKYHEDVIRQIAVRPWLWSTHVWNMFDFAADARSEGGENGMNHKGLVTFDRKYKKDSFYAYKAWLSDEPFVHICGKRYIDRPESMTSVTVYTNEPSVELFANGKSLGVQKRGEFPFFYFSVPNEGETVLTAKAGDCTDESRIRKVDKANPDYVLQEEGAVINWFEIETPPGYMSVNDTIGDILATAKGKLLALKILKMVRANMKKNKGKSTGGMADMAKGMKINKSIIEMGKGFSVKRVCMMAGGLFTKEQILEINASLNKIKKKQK

G380M variant of FpL2-6 = assay: Regorafenib-glucuronide processing by G380M variant of FpL2-6; assay type: biochemical, Faecalibacterium prausnitzii
[2] = test system: gut microbial GUS enzymes in mouse fecal samples; assay type: in vitro ADME, mice (C57BL/6 and BALB/c)
[3] = test system: gut microbial GUS enzymes in human feces; assay type: in vitro ADME
[4] = test system: intestinal homogenate lysates (cecum, small intestine, large intestine); assay: Regorafenib-glucuronide conversion in intestinal homogenates of SPF mice; assay type: in vitro ADME, C57BL/6J mice
[5] = test system: cecum and cecal contents of germ-free mice; assay: Regorafenib-glucuronide conversion in ceca of germ-free mice; assay type: in vitro ADME, germ-free C57BL/6J mice; conditions: cecum and cecal contents of 5 GF mice, 48 h incubation

Cc1cc(=O)oc2cc(O[C@@H]3O[C@H](C(=O)O)[C@@H](O)[C@H](O)[C@H]3O)ccc12 [4-MUG, 4-methylumbelliferyl glucuronide]
rate relative to rates with regorafenib-glucuronide [1]: 10–100 times faster

Cc1c(-c2ccc(O)cc2)n(Cc2ccc(OCCN3CCCCCC3)cc2)c2ccc(O)cc12 [bazedoxifene]
potency (in words) (Rh2GUS; toward Rh2GUS): low micromolar

O=C(c1ccc(OCCN2CCCCC2)cc1)c1c(-c2ccc(O)cc2)sc2cc(O)ccc12 [raloxifene]
IC50 (FpL2-6): 78 ± 9 µM
IC50 ((UniProt D5GU71)): 100 ± 5 µM
IC50 (Rh2GUS): 13 ± 3 µM

regorafenib-glucuronide
increase in catalytic efficiency (G380M variant of FpL2-6; G380M variant versus FpL2-6 wild type): 40 fold
catalytic efficiency (G380M variant of FpL2-6; substrate regorafenib-glucuronide, G380M variant of FpL2-6): 4560 s⁻¹ M⁻¹
conversion of regorafenib-glucuronide to regorafenib [2]: no conversion
regorafenib-glucuronide reactivation [3]: no regorafenib-glucuronide reactivation
regorafenib-glucuronide converted to regorafenib ([4]; cecal extracts of SPF mice, 48 h): almost all
conversion of regorafenib-glucuronide to regorafenib ([4]; small and large intestine homogenates, after 48 h): relatively little conversion
reactivation of regorafenib from regorafenib-glucuronide [5]: neither the cecum nor its contents were able to catalyze the reactivation
